Results as given in BindingDB's records for doi:10.1016/j.bmcl.2005.11.011 (University of Pennsylvania, 2006).

These compounds were tested against T1, Dimer of Gag-Pol polyprotein [489-587] (Human immunodeficiency virus 1, UniProt P12497) (assay: Protease Inhibition Assay). Conditions: pH 5.5; 30 °C.
T1 construct: 489-587

Row | Structure (SMILES) | IC50
1 | CC(C)(C)OC(=O)N[C@@H](Cc1ccccc1)[C@@H](O)C[C@]1(Cc2ccccc2)N=CC(C2c3ccccc3[C@H]3NC(=O)O[C@@H]23)C1=O (stereo partly drawn) [tert-butyl N-[(2S,3S)-4-[(2S)-4-[(3aR,8aS)-2-oxo-2H,3H,3aH,8H,8aH-indeno[1,2-d][1,3]oxazol-8-yl]-2-benzyl-3-oxo-2,3-dihydro-1H-pyrrol-2-yl]-3-hydroxy-1-phenylbutan-2-yl]carbamate] | 2.5 nM
2 | CC(C)(C)OC(=O)N[C@@H](Cc1ccccc1)[C@@H](O)C[C@]1(Cc2ccccc2)N=CC(C2C[C@H](CC(N)=O)c3ccccc32)C1=O (stereo partly drawn) [tert-butyl N-[(2S,3S)-4-[(2S)-2-benzyl-4-[(3R)-3-(carbamoylmethyl)-2,3-dihydro-1H-inden-1-yl]-3-oxo-2,3-dihydro-1H-pyrrol-2-yl]-3-hydroxy-1-phenylbutan-2-yl]carbamate] | 20.5 nM
3 | O=C(N[C@@H](Cc1ccccc1)[C@@H](O)C[C@]1(Cc2ccccc2)N=CC(C2CNC(=O)c3ccccc32)C1=O)O[C@H]1CCOC1 (stereo partly drawn) [(3S)-oxolan-3-yl N-[(2S,3S)-4-[(2S)-2-benzyl-3-oxo-4-(1-oxo-1,2,3,4-tetrahydroisoquinolin-4-yl)-2,3-dihydro-1H-pyrrol-2-yl]-3-hydroxy-1-phenylbutan-2-yl]carbamate] | 5.7 nM
4 | O=C(N[C@@H](Cc1ccccc1)[C@@H](O)C[C@]1(Cc2ccccc2)N=CC(C2c3ccccc3[C@H]3NC(=O)O[C@@H]23)C1=O)O[C@H]1CCOC1 (stereo partly drawn) [(3S)-oxolan-3-yl N-[(2S,3S)-4-[(2S)-4-[(3aR,8aS)-2-oxo-2H,3H,3aH,8H,8aH-indeno[1,2-d][1,3]oxazol-8-yl]-2-benzyl-3-oxo-2,3-dihydro-1H-pyrrol-2-yl]-3-hydroxy-1-phenylbutan-2-yl]carbamate] | 0.44 nM
5 | CC(C)(C)CC(=O)N[C@@H](Cc1ccccc1)[C@@H](O)C[C@]1(Cc2ccccc2)N=CC(C2C[C@H](CC(N)=O)c3ccccc32)C1=O (stereo partly drawn) [N-[(2S,3S)-4-[(2S)-2-benzyl-4-[(3R)-3-(carbamoylmethyl)-2,3-dihydro-1H-inden-1-yl]-3-oxo-2,3-dihydro-1H-pyrrol-2-yl]-3-hydroxy-1-phenylbutan-2-yl]-3,3-dimethylbutanamide] | > 250 nM
6 | NC(=O)O[C@@H]1Cc2ccccc2C1C1C=N[C@@](Cc2ccccc2)(C[C@H](O)[C@H](Cc2ccccc2)NC(=O)O[C@H]2CCOC2)C1=O (stereo partly drawn) [(3S)-oxolan-3-yl N-[(2S,3S)-4-[(2S)-2-benzyl-4-[(2R)-2-(carbamoyloxy)-2,3-dihydro-1H-inden-1-yl]-3-oxo-2,3-dihydro-1H-pyrrol-2-yl]-3-hydroxy-1-phenylbutan-2-yl]carbamate] | 2 nM
7 | CC(C)(C)CC(=O)N[C@@H](Cc1ccccc1)[C@@H](O)C[C@]1(Cc2ccccc2)N=CC(C2c3ccccc3[C@H]3NC(=O)O[C@@H]23)C1=O (stereo partly drawn) [N-[(2S,3S)-4-[(2S)-4-[(3aR,8aS)-2-oxo-2H,3H,3aH,8H,8aH-indeno[1,2-d][1,3]oxazol-8-yl]-2-benzyl-3-oxo-2,3-dihydro-1H-pyrrol-2-yl]-3-hydroxy-1-phenylbutan-2-yl]-3,3-dimethylbutanamide] | 96 nM
8 | O=C(N[C@@H](Cc1ccccc1)[C@@H](O)C[C@]1(Cc2ccccc2)N=CC(C2c3ccccc3C[C@H]2O)C1=O)O[C@H]1CCOC1 (stereo partly drawn) [(3S)-oxolan-3-yl N-[(2S,3S)-4-[(2S)-2-benzyl-4-[(2R)-2-hydroxy-2,3-dihydro-1H-inden-1-yl]-3-oxo-2,3-dihydro-1H-pyrrol-2-yl]-3-hydroxy-1-phenylbutan-2-yl]carbamate] | 2 nM
